Patent US3988450A, “Cephalosporins” (priority 1974, dated 1976)
Values after ≈ are worked out from the molar mass of the structure shown. Read-outs that look alike come from different tables or passages of the source.

Key:
Proteus mirabilis C977 = test: MIC on nutrient agar; assay type: cell-based
From the text: (§1) The minimum inhibitory concentrations of this compound required to inhibit the growth of various bacteria on nutrient agar are tabulated below: […]

E. coli JT1 = test: MIC on nutrient agar; assay type: cell-based; conditions: Escherichia coli
From the text: as §1

B. subtilis = test: MIC on nutrient agar; assay type: cell-based; conditions: Bacillus subtilis
From the text: as §1

Staph. aureus Oxford = test: MIC on nutrient agar; assay type: cell-based; conditions: Staphylococcus aureus
From the text: as §1

β-Haemolytic Strep. CN10 = test: MIC on nutrient agar; assay type: cell-based
From the text: as §1

Klebsiella aerogenes A = test: MIC on nutrient agar; assay type: cell-based
From the text: as §1

Salmonella typhi = test: MIC on nutrient agar; assay type: cell-based; conditions: Salmonella enterica
From the text: as §1

Staph. aureus Russell = test: MIC on nutrient agar; assay type: cell-based; conditions: Staphylococcus aureus
Serratia marcescens US32 = test: MIC on nutrient agar; assay type: cell-based
From the text: as §1

Shigella sonnei = test: MIC on nutrient agar; assay type: cell-based
From the text: as §1

[1] = Serum concentrations in mice after sub-cutaneous injection, microbiological assay; assay type: in vivo; conditions: mouse, sc, 50 mg/kg sub-cutaneous, average, read-out: Serum concentrations at time after dosing; for concentration at 0.5 h: 30 min; for concentration at 1 h: 60 min
Procedure: Each compound was injected sub-cutaneously into groups of mice at a dose of 50 mg/kg, and serum samples were taken at timed intervals thereafter and assayed microbiologically for their antibiotic content using the appropriate compound as standard.

Enterobacter cloacae N1 = test: MIC on nutrient agar; assay type: cell-based
From the text: as §1

P. morganii = test: MIC on nutrient agar; assay type: cell-based; conditions: Morganella morganii
From the text: as §1

P. mirabilis 899 = test: MIC on nutrient agar; assay type: cell-based; conditions: Proteus mirabilis; P. mirabilis 899, nutrient agar
P. mirabilis 889 = test: MIC on nutrient agar; assay type: cell-based; conditions: Proteus mirabilis; P. mirabilis 889, nutrient agar
From the text: as §1

[2] = general knowledge; cited from earlier work
[3] = E. coli JT1, nutrient agar, read-out: MIC

For N[C@@H](C(=O)N[C@@H]1C(=O)N2C(C(=O)O)=C(Cc3cccc(C(=O)O)c3)CS[C@H]12)c1ccccc1 [XLI, 3-(m-Carboxybenzyl)-7β-(D-α-phenylglycyl)amino-ceph-3-em-4-carboxylic acid], the MIC (Proteus mirabilis C977) was 2.5 µg/mL (≈ 5.35 µM), the MIC (E. coli JT1; [3]) was 12.5 µg/mL (≈ 26.7 µM) and the MIC (B. subtilis) was 0.25 µg/mL (≈ 0.535 µM). For the same molecule, the MIC (Staph. aureus Oxford) was 0.25 µg/mL (≈ 0.535 µM), the MIC (β-Haemolytic Strep. CN10) was 0.12 µg/mL (≈ 0.257 µM) and the MIC (Klebsiella aerogenes A) was 2.5 µg/mL (≈ 5.35 µM). For the same molecule, the MIC (Salmonella typhi) was 2.5 µg/mL (≈ 5.35 µM) and the MIC (Staph. aureus Russell) was 1.25 µg/mL (≈ 2.67 µM).

For CN(C(=O)C=Cc1ccccc1)C(=O)N[C@@H](C(=O)N[C@@H]1C(=O)N2C(C(=O)O)=C(Cc3ccccc3C(=O)O)CS[C@H]12)c1ccccc1 [LVIX, 3-(o-Carboxybenzyl)-7β-[D-α-(3-cinnamoul-3-methylureido)phenylacetamido]ceph-3-em-4-carboxylic acid], the MIC (Serratia marcescens US32) was 4 µg/mL (≈ 6.11 µM), the MIC (Staph. aureus Oxford) was 4 µg/mL (≈ 6.11 µM) and the MIC (β-Haemolytic Strep. CN10) was 0.25 µg/mL (≈ 0.382 µM). For the same molecule, the MIC (Shigella sonnei) was 4 µg/mL (≈ 6.11 µM).

N[C@@H](C(=O)N[C@@H]1C(=O)N2C(C(=O)O)=C(Cc3ccc(C(=O)O)cc3)CS[C@H]12)c1ccccc1 [p-carboxy isomer, 3-(p-Carboxybenzyl)-7β-(D-α-phenylglycyl)amino-ceph-3-em-4-carboxylic acid] gave a concentration at 10 min [1] of 75000 ng/mL, a concentration at 20 min [1] of 87000 ng/mL and a concentration at 0.5 h [1] of 69000 ng/mL. For the same molecule, the concentration at 1 h [1] was 48000 ng/mL, the concentration at 2 h [1] was 22000 ng/mL and the concentration at 4 h [1] was 9300 ng/mL.

Work on CN(C(=O)C=Cc1ccccc1)C(=O)N[C@@H](C(=O)N[C@@H]1C(=O)N2C(C(=O)O)=C(Cc3ccc(C(=O)O)cc3)CS[C@H]12)c1ccccc1 [XXI, 3-(p-Carboxybenzyl)-7β-[D-α-(3-cinnamoyl-3-methylureido)phenylacetamido]ceph-3-em-4-carboxylic acid] yielded an MIC (Proteus mirabilis C977) of 5 µg/mL (≈ 7.64 µM), an MIC (E. coli JT1; JT1) of 12.5 µg/mL (≈ 19.1 µM) and an MIC (Serratia marcescens US32) of 5 µg/mL (≈ 7.64 µM). The MIC (Enterobacter cloacae N1) was 5 µg/mL (≈ 7.64 µM), the MIC (Staph. aureus Oxford) was 2.5 µg/mL (≈ 3.82 µM) and the MIC (β-Haemolytic Strep. CN10) was 0.12 µg/mL (≈ 0.183 µM). The MIC (Klebsiella aerogenes A) was 5 µg/mL (≈ 7.64 µM), the MIC (Salmonella typhi) was 12.5 µg/mL (≈ 19.1 µM) and the MIC (Shigella sonnei) was 5 µg/mL (≈ 7.64 µM).

Work on N[C@@H](C(=O)N[C@@H]1C(=O)N2C(C(=O)O)=C(Cc3ccc(C(=O)O)cc3)CS[C@H]12)c1ccccc1.O=C(O)C(F)(F)F [XIII, 3-(p-Carboxybenzyl)-7β-(D-α-phenylglycyl)amino-ceph-3-em-4-carboxylic acid trifluoroacetic acid salt] yielded an MIC (Proteus mirabilis C977) of 1.25 µg/mL, an MIC (E. coli JT1; [3]) of 12.5 µg/mL and an MIC (B. subtilis) of 1.25 µg/mL. For the same molecule, the MIC (Staph. aureus Oxford) was 0.5 µg/mL, the MIC (β-Haemolytic Strep. CN10) was 0.5 µg/mL and the MIC (Salmonella typhi) was 0.5 µg/mL. It also gave an MIC (Shigella sonnei) of 5 µg/mL and an MIC (Staph. aureus Russell) of 2.5 µg/mL.

N[C@@H](C(=O)N[C@@H]1C(=O)N2C(C(=O)O)=C(Cc3ccccc3C(=O)O)CS[C@H]12)c1ccccc1 [o-carboxy isomer, 3-(o-Carboxybenzyl)-7β-(D-α-phenylglycyl)aminoceph-3-em-4-carboxylic acid] showed a concentration at 10 min [1] of 63000 ng/mL, a concentration at 20 min [1] of 66000 ng/mL and a concentration at 0.5 h [1] of 58000 ng/mL. For the same molecule, the concentration at 1 h [1] was 49000 ng/mL, the concentration at 2 h [1] was 41000 ng/mL and the concentration at 4 h [1] was 31000 ng/mL.

CN(N=Cc1ccccc1)C(=O)N[C@@H](C(=O)N[C@@H]1C(=O)N2C(C(=O)O)=C(Cc3ccc(C(=O)O)cc3)CS[C@H]12)c1ccccc1 [XIX, 3-(p-Carboxybenzyl)-7β-[D-α-(3-benzylideneimino-3-methylureido)phenylacetamido]ceph-3-em-4-carboxylic acid] showed an MIC (Proteus mirabilis C977) of 5 µg/mL (≈ 7.97 µM), an MIC (E. coli JT1; [3]) of 12.5 µg/mL (≈ 19.9 µM) and an MIC (Serratia marcescens US32) of 12.5 µg/mL (≈ 19.9 µM). For the same molecule, the MIC (Enterobacter cloacae N1) was 5 µg/mL (≈ 7.97 µM), the MIC (Staph. aureus Oxford) was 1.25 µg/mL (≈ 1.99 µM) and the MIC (β-Haemolytic Strep. CN10) was 0.12 µg/mL (≈ 0.191 µM). The MIC (Klebsiella aerogenes A) was 5 µg/mL (≈ 7.97 µM), the MIC (Salmonella typhi) was 5 µg/mL (≈ 7.97 µM) and the MIC (Shigella sonnei) was 2.5 µg/mL (≈ 3.98 µM). For the same molecule, the MIC (P. morganii) was 12.5 µg/mL (≈ 19.9 µM).

O=C(Cc1cccs1)N[C@@H]1C(=O)N2C(C(=O)O)=C(Cc3ccc(C(=O)O)cc3)CS[C@H]12 [XXX, 7β-(2-Thienylacetamido)-3-(p-carboxybenzyl)ceph-3-em-4-carboxylic acid] gave an MIC (Proteus mirabilis C977) of 5 µg/mL (≈ 10.9 µM), an MIC (B. subtilis) of 1.2 µg/mL (≈ 2.62 µM) and an MIC (Staph. aureus Oxford) of 0.1 µg/mL (≈ 0.218 µM). The MIC (β-Haemolytic Strep. CN10) was 0.5 µg/mL (≈ 1.09 µM), the MIC (Salmonella typhi) was 5 µg/mL (≈ 10.9 µM) and the MIC (P. mirabilis 899) was 2.5 µg/mL (≈ 5.45 µM). It also gave an MIC (Staph. aureus Russell) of 5 µg/mL (≈ 10.9 µM).

In the case of N[C@@H](C(=O)N[C@@H]1C(=O)N2C(C(=O)O)=C(Cc3cccc(C(=O)O)c3)CS[C@H]12)c1ccccc1 [m-carboxy isomer, 3-(m-Carboxybenzyl)-7β-(D-α-phenylglycyl)amino-ceph-3-em-4-carboxylic acid], the concentration at 10 min [1] is reported as 84000 ng/mL, the concentration at 20 min [1] is reported as 64000 ng/mL and the concentration at 0.5 h [1] is reported as 50000 ng/mL. The concentration at 1 h [1] was 26000 ng/mL, the concentration at 2 h [1] was 14000 ng/mL and the concentration at 4 h [1] was 1600 ng/mL.

For N[C@@H](C(=O)N[C@@H]1C(=O)N2C(C(=O)O)=C(Cc3ccccc3C(=O)O)CS[C@H]12)c1ccccc1 [LV, 3-(o-Carboxybenzyl)-7β-(D-α-phenylglycyl)aminoceph-3-em-4-carboxylic acid], the MIC (Proteus mirabilis C977) was 5 µg/mL (≈ 10.7 µM), the MIC (E. coli JT1; [3]) was 12.5 µg/mL (≈ 26.7 µM) and the MIC (B. subtilis) was 1.25 µg/mL (≈ 2.67 µM). The MIC (Staph. aureus Oxford) was 5 µg/mL (≈ 10.7 µM), the MIC (β-Haemolytic Strep. CN10) was 5 µg/mL (≈ 10.7 µM) and the MIC (Klebsiella aerogenes A) was 5 µg/mL (≈ 10.7 µM). The MIC (P. mirabilis 889) was 5 µg/mL (≈ 10.7 µM).

With O=C(O)C1=C(Cc2ccc(C(=O)O)cc2)CS[C@@H]2[C@H](NC(=O)[C@H](O)c3ccccc3)C(=O)N12 [XV] the MIC (Proteus mirabilis C977) was 0.5 µg/mL (≈ 1.07 µM), the MIC (E. coli JT1; [3]) was 5 µg/mL (≈ 10.7 µM) and the MIC (B. subtilis) was 0.5 µg/mL (≈ 1.07 µM). For the same molecule, the MIC (Staph. aureus Oxford) was 0.25 µg/mL (≈ 0.534 µM), the MIC (β-Haemolytic Strep. CN10) was 0.25 µg/mL (≈ 0.534 µM) and the MIC (Salmonella typhi) was 5 µg/mL (≈ 10.7 µM).

N[C@@H](C(=O)N[C@@H]1C(=O)N2C(C(=O)O)=C(Cc3ccc(C(=O)O)cc3)CS[C@H]12)c1ccc(O)cc1.O=C(O)C(F)(F)F [XVII, 3-(p-carboxybenzyl)-7β-(D-α-p-hydroxyphenylglycyl)aminoceph-3-em-4-carboxylic acid trifluoroacetic acid salt] gave an MIC (Proteus mirabilis C977) of 2.5 µg/mL, an MIC (B. subtilis) of 5 µg/mL and an MIC (Staph. aureus Oxford) of 2.5 µg/mL. For the same molecule, the MIC (β-Haemolytic Strep. CN10) was 0.5 µg/mL, the MIC (Salmonella typhi) was 5 µg/mL and the MIC (Staph. aureus Russell) was 5 µg/mL.

In the case of CN(N=Cc1ccccc1)C(=O)N[C@@H](C(=O)N[C@@H]1C(=O)N2C(C(=O)O)=C(Cc3ccccc3C(=O)O)CS[C@H]12)c1ccccc1 [LVIII, 3-(o-Carboxybenzyl)-7β-[D-α-(3-benzylideneimino-3-methylureido)-phenylacetamido]-ceph-3-em-4-carboxylic acid], the MIC (E. coli JT1; [3]) is reported as 8 µg/mL (≈ 12.7 µM), the MIC (Enterobacter cloacae N1) is reported as 8 µg/mL (≈ 12.7 µM) and the MIC (Staph. aureus Oxford) is reported as 8 µg/mL (≈ 12.7 µM). The MIC (β-Haemolytic Strep. CN10) was 0.2 µg/mL (≈ 0.319 µM) and the MIC (Shigella sonnei) was 4 µg/mL (≈ 6.37 µM).

For NC(=O)N[C@H](Cc1c[nH]c2ccccc12)C(=O)N[C@@H](C(=O)N[C@@H]1C(=O)N2C(C(=O)O)=C(Cc3ccc(C(=O)O)cc3)CS[C@H]12)c1ccccc1 [XXVI], the MIC (Proteus mirabilis C977) was 12.5 µg/mL (≈ 17.9 µM), the MIC (E. coli JT1; [3]) was 5 µg/mL (≈ 7.18 µM) and the MIC (Staph. aureus Oxford) was 0.5 µg/mL (≈ 0.718 µM). For the same molecule, the MIC (Klebsiella aerogenes A) was 5 µg/mL (≈ 7.18 µM), the MIC (Salmonella typhi) was 5 µg/mL (≈ 7.18 µM) and the MIC (Shigella sonnei) was 5 µg/mL (≈ 7.18 µM). The MIC (Staph. aureus Russell) was 5 µg/mL (≈ 7.18 µM).

With Cc1nnc(SCC2=C(C(=O)O)N3C(=O)[C@@H](NC(=O)Cn4cnnn4)[C@H]3SC2)s1 [Cefazolin, reference compound] the concentration at 10 min [1] was 45000 ng/mL, the concentration at 20 min [1] was 37000 ng/mL and the concentration at 0.5 h [1] was 21000 ng/mL. The concentration at 1 h [1] was under 4000 ng/mL, the concentration at 2 h [1] was under 4000 ng/mL and the concentration at 4 h [1] was under 4000 ng/mL. The “duration of action (regarded as)” value [2] was “relatively `long-acting` cephalosporin”.

Molecule O=C(O)C1=C(Cc2cccc(C(=O)O)c2)CS[C@@H]2[C@H](NC(=O)[C@H](O)c3ccccc3)C(=O)N12 [XLIII] has an MIC (Proteus mirabilis C977) of 8 µg/mL (≈ 17.1 µM), an MIC (B. subtilis) of 0.5 µg/mL (≈ 1.07 µM) and an MIC (Staph. aureus Oxford) of 0.5 µg/mL (≈ 1.07 µM). For the same molecule, the MIC (β-Haemolytic Strep. CN10) was 2 µg/mL (≈ 4.27 µM) and the MIC (Salmonella typhi) was 8 µg/mL (≈ 17.1 µM).
